Experimental data: PMC9130538, “Amino acids in transmembrane helix 1 confer major functional differences between human and mouse orthologs of the polyspecific membrane transporter OCT1” (The Journal of Biological Chemistry, 2022)

Key:
human OCT1 = target: T1, human OCT1 (Homo sapiens, UniProt O15245); test: Cellular uptake by HEK293 cells overexpressing human OCT1 (wildtype); conditions: human versus mouse OCT1, stably transfected HEK293
T1 sequence (O15245 1-554): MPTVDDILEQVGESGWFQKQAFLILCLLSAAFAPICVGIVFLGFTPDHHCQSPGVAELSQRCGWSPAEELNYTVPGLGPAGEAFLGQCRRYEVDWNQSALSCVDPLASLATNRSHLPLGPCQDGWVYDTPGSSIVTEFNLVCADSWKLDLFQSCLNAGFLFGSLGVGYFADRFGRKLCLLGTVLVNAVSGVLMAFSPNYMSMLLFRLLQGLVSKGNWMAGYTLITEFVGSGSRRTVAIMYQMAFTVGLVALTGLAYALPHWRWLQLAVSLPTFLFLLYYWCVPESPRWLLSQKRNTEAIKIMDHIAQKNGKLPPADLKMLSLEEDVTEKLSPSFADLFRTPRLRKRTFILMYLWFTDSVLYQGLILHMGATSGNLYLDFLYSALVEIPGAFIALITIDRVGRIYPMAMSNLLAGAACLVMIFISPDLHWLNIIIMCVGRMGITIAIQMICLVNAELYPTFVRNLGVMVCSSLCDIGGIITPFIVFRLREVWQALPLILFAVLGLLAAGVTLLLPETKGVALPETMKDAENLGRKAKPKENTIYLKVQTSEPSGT
Method: Generation and characterization of these cell lines has been described in detail before ([34], [48], [49]). Cells were cultured in Dulbecco’s Modified Eagle’s Medium supplemented with 10% fetal bovine serum, 100 U/ml penicillin, and 100 μg/ml streptomycin at 37 °C and 5% CO2 and were passaged twice a week.
At 48 h prior to the experiment, 6 × 10^5 cells were seeded per well in 12-well plates. When using transiently transfected cells, 5 × 10^5 T-REx-293 cells (Life Technologies) were seeded per well in 12-well plates 72 h prior to the experiment, and they were transfected 24 h later as described previously. Twelve-well plates were precoated with poly-D-lysine.
(§1) Cellular uptake experiments were performed at 37 °C and pH 7.4 using HBSS supplemented with 10 mM Hepes (in the following referred to as HBSS+). Cells were washed with 1 ml prewarmed (37 °C) HBSS+, and the uptake was initiated by adding 400 μl of prewarmed HBSS+ containing the substrate. Uptake was allowed for exactly 2 min and afterward stopped by adding 2 ml ice-cold HBSS+. Cells were washed twice with 2 ml ice-cold HBSS+ and lysed with 80% acetonitrile supplemented with internal standard, 0.1 N NaOH/0.1% SDS, or radioimmunoprecipitation buffer for LC–MS/MS, liquid scintillation counting, or fluorescence spectroscopy detection, respectively. Intracellular substrate concentrations were measured as described in the following and were then normalized to the amount of total protein in the samples as measured using the bicinchoninic acid assay ([51]).
For LC–MS/MS quantification of intracellular substrate concentrations, the cell lysate was centrifuged at 16,000g for 15 min, and 350 μl of supernatant was evaporated to dryness under nitrogen flow at 40 °C. The sample was reconstituted with 200 μl 0.1% formic acid, and between 2 and 30 μl were injected into the LC–MS/MS system (Table S1).
An API4000 QTRAP tandem mass spectrometer with ESI interface (AB SCIEX) was used, coupled to a Shimadzu Nexera X2 UHPLC system with LC 30AD pumps and SiL 30AC autosampler (Shimadzu).
Intracellular concentrations of radioactively labeled substrates MPP^+ and TEA^+ were quantified using liquid scintillation counting. To this end, 400 μl cell lysate was transferred into a 20 ml scintillation vial, 9 ml Aquasafe 500 Plus liquid scintillator (both Zinsser Analytics) was added, and the sample was measured in the Scintillation Counter LS6500 (Beckman Coulter).
For both analyses, SPSS Statistics, version 28 (SPSS, Inc, IBM) was used.

human OCT1 Cys36Tyr = target: T2, human OCT1 Cys36Tyr (Homo sapiens, UniProt O15245, C36Y); test: Uptake by HEK293 cells overexpressing Cys36Tyr human OCT1; type: cell-based; conditions: stably transfected HEK293, increasing concentrations, 2 min
T2 construct: expressed in transfected cells
Method: (§2) Human–mouse chimeric OCT1 constructs were generated using the overlap extension method ([50]) and have been characterized before ([34]). […] All constructs were validated by capillary sequencing of the complete open reading frame of OCT1 before transfection into HEK293 cells.
(§3) For transient transfection of OCT1 constructs into HEK293 cells for uptake experiments, 5 × 10^5 T-REx-293 cells (Life Technologies) were seeded per well in 12-well plates precoated with poly-D-lysine. […] At 48 h later, transfection efficacy was assessed microscopically by visualizing the GFP signal of the cotransfected GFP vector, and the cells were subsequently used for uptake experiments. […]
as §1, with “Cells were washed with 1 ml prewarmed (37 °C) HBSS+, and the uptake was initiated by adding 400 μl of prewarmed HBSS+ containing the substrate. Uptake was allowed for exactly 2 min and afterward stopped by adding 2 ml ice-cold HBSS+.” left out, “([51]). […]” for “([51]).”

mouse Oct1 Tyr36Cys = mouse Oct1 Tyr36Cys (Mus musculus, UniProt O08966, Y36C); conditions: stably transfected HEK293, increasing concentrations, 2 min
Chain of mouse Oct1 Tyr36Cys (O08966 whole entry Y36C): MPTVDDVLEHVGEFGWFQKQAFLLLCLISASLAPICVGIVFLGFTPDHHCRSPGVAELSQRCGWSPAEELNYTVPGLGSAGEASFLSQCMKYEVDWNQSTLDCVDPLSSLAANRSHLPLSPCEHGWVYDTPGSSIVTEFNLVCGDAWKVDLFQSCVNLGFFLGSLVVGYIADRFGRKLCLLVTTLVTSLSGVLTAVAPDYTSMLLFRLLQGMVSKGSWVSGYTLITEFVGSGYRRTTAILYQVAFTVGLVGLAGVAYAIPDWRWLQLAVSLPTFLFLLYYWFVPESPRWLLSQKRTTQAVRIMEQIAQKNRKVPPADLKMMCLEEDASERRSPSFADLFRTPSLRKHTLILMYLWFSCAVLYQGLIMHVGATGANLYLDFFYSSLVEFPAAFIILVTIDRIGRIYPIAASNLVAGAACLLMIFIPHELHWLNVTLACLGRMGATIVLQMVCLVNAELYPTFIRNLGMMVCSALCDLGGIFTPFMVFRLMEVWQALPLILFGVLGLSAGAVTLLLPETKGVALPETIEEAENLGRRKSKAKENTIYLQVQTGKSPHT
Method: as §2, §3
as §1, with “Cells were washed with 1 ml prewarmed (37 °C) HBSS+, and the uptake was initiated by adding 400 μl of prewarmed HBSS+ containing the substrate. Uptake was allowed for exactly 2 min and afterward stopped by adding 2 ml ice-cold HBSS+.” left out, “([51]). […]” for “([51]).”

[1] = human, estimated based on clinical data, ref [9]; cited from earlier work

SMILES | fold lower affinity (KM) of human OCT1 than mouse Oct1 (higher affinity of mouse Oct1) (human OCT1) | effect of Cys36Tyr in human OCT1 on affinity (KM) (human OCT1 Cys36Tyr) | effect of Tyr36Cys in mouse OCT1 on affinity (KM) (mouse Oct1 Tyr36Cys) | fold higher affinity (KM) of human than of mouse OCT1 (human OCT1) | clinically relevant (plasma) concentration [1]
CC(C)(C)NCC(O)c1cc(O)cc(O)c1 (centres unmarked) [Terbutaline] | more than sixfold higher affinity of mouse Oct1 | did not affect | did not affect |  | 
CC(Cc1ccc(O)cc1)NCC(O)c1cc(O)cc(O)c1 (centres unmarked) [Fenoterol] |  |  |  | 8.1 fold | 2.18 nM
